Publication PMC4949556, “Subtle Structural Differences Trigger Inhibitory Activity of Propafenone Analogues at the Two Polyspecific ABC Transporters: P‐Glycoprotein (P‐gp) and Breast Cancer Resistance Protein (BCRP)” (Chemmedchem, 2016)
Entries after “also recorded” stand apart in the source; their conditions may differ.

Legend:
Assay type in all cases: cell-based
BCRP = molecular target: T1, BCRP (Homo sapiens, UniProt Q9UNQ0); experiment: BCRP inhibition: steady-state mitoxantrone accumulation in BCRP-expressing PLB985 cells (flow cytometry); details: for IC50: BCRP IC50, mitoxantrone 7 μM, PLB985 BCRP cells, mean±SD, at least n=3 (11 a n=2); for Hill coefficient BCRP: Hill coefficient of IC50 measurement, mean ± SD of n experiments; for in vitro classification as BCRP inhibitor: IC50 below 10 μM considered active; for inhibition at 20 min, 100 µM: human, PLB985 cells stably expressing BCRP, pH 7.4, probe mitoxantrone (7 µM), 100µM compound, compared to positive control Ko143 (1µM) set as 100%, mean of 3 independent experiments, read-out: In vitro activity (% inhibition), BCRP, Table S1; for fold lower IC50 value for BCRP than for P-gp: ratio IC50 P-gp / IC50 BCRP
T1 construct: expressed in transfected cells; host or cells: PLB985 human myeloid leukemia cells stably expressing BCRP (gift of B. Sarkadi and K. Nemet, Budapest)
Experimental: (§1) P‐gp and BCRP inhibitory activity was assessed by implementing an intracellular accumulation assay of daunorubicin or mitoxantrone in cells overexpressing P‐gp or BCRP, respectively. In a first run, the effect of compounds 5, 6, 10, 11, and 16 (Figure 2) at 100 μM final concentration was tested (Figure 3). All compounds showing an inhibitory effect of more than 50 % compared with full inhibition by the known inhibitors of P‐gp (verapamil) and BCRP (Ko143) were further processed, and IC50 values were determined (IC50 curves and Hill coefficients are available in Figure S1 and Table S3 in the Supporting Information). […] For P‐gp, nine compounds were classified as inhibitors (5 a, 5 b, 6 a, 10 a, 10 b, 11 b, 16 a, 16 b, 16 c).
(§2) Cell culture: The human myeloid leukemia PLB985 parental and stably expressing BCRP cell lines31 were kindly provided by B. Sarkadi (Institute of Enzymology, Research Centre for Natural Sciences, Budapest, Hungary) and K. Nemet (Creative Cell Ltd., Budapest, Hungary). Both cell lines were cultured in RPMI 1640 supplemented with 10 % FBS and 100 IU mL^−1 of penicillin and streptomycin. The human T‐lymphoblast cell line CCRF VCR1000, overexpressing P‐gp, was obtained by stepwise selection of CCRF‐CEM in vincristine‐containing medium32 and was kindly provided by V. Gekeler (Altana‐Pharma formerly Byk‐Gulden, Konstanz, Germany). CCRF VCR1000 cells were cultured in RPMI 1640 medium containing 20 % FBS and were treated regularly with vincristine (1 μg mL^−1) for about 72 h, followed by centrifugation (300 g, 5 min, RT) and resuspension in normal culture medium. All cell lines were maintained at 37 °C in an atmosphere containing 5 % CO2 with 95 % relative humidity.
(§3) Steady‐state accumulation experiments: For BCRP and P‐gp inhibition studies, the steady‐state accumulation of mitoxantrone (7 μM) and daunorubicin (3 μM), respectively, was performed as previously described.33 Briefly, cells were harvested, pelleted (300 g, 5 min, 4 °C), diluted to a concentration of 12×10^6 cells mL^−1 in HPMI (10 mM Hepes, 120 mM NaCl, 5 mM KCl, 0.4 mM MgCl2, 0.04 mM CaCl2, 10 mM glucose, 10 mM NaHCO3, 5 mM Na2HPO4, pH 7.4 with NaOH) and kept on ice for further processing. For each data point, the cell suspension (25 μL) was preincubated for 5 min at 37 °C with 2 % DMSO (25 μL) in HPMI alone (DMSO control) or containing different concentrations of test compound solutions. Thereafter, cells were preloaded with daunorubicin (50 μL) or mitoxantrone (50 μL) for 30 or 20 min at 37 °C, respectively, to reach a final concentration of 3 or 7 μM, respectively. […] Preloading was stopped by chilling cells on ice for 5 min followed by the addition of 400 μL ice‐cold PBS. Cells were pelleted (300 g, 5 min, 4 °C), the supernatant was discarded, and the cell pellet was resuspended in ice‐cold PBS (150 μL). Until measurement, cells were kept on ice and in the dark. Immediately before cell fluorescence measurement by flow cytometry (BD Accuri C6 and BD FACSCalibur, Becton Dickinson, San Jose, CA, USA; MACSQuant, MiltenyiBiotec GmbH, BergischGladbach, Germany), 50 μL of 4′,6‐diamidin‐2‐phenylindole solution (DAPI, 4 μg mL^−1 in PBS) was added to gate out dead cells. 100 μM verapamil and 1 μM Ko143 were used as positive controls for P‐gp and BCRP inhibition, respectively. […]

P-gp = molecular target: T2, P-gp (Homo sapiens, UniProt P08183); experiment: P-gp inhibition: steady-state daunorubicin accumulation in P-gp-overexpressing CCRF VCR1000 cells (flow cytometry); details: for Hill coefficient P-gp: Hill coefficient of IC50 measurement, mean ± SD of n experiments; for in vitro classification as P-gp inhibitor: IC50 below 10 μM considered active; for IC50: daunorubicin 3 μM, CCRF VCR1000 cells, mean±SD, at least n=3; for fold higher IC50 value for BCRP than for P-gp: ratio IC50 BCRP / IC50 P-gp; for inhibition at 30 min, 100 µM: human, CCRF VCR1000 cells overexpressing P-gp, pH 7.4, probe daunorubicin (3 µM), 100µM compound, compared to positive control verapamil (100µM) set as 100%, mean of 3 independent experiments, read-out: In vitro activity (% inhibition), P-gp, Table S2
T2 construct: was obtained by stepwise selection of CCRF‐CEM in vincristine‐containing medium; endogenous in cells; host or cells: CCRF VCR1000 (vincristine-selected subline of CCRF-CEM human T-lymphoblasts; gift of V. Gekeler)
Experimental: as §1, §2, §3

P-gp / BCRP = molecular target: T3, P-gp / BCRP (Homo sapiens, UniProt Q9UNQ0); experiment: BCRP inhibition: steady-state mitoxantrone accumulation in BCRP-expressing PLB985 cells (flow cytometry); details: human, pH 7.4, probe daunorubicin (3 µM) for P-gp; mitoxantrone (7 µM) for BCRP; IC50 P-gp / IC50 BCRP; read-out: selectivity index (SI) P-gp/BCRP
T3 construct: expressed in transfected cells; host or cells: PLB985 human myeloid leukemia cells stably expressing BCRP (gift of B. Sarkadi and K. Nemet, Budapest)
Experimental: as §1, §2, §3

T3 sequence (Q9UNQ0 whole entry): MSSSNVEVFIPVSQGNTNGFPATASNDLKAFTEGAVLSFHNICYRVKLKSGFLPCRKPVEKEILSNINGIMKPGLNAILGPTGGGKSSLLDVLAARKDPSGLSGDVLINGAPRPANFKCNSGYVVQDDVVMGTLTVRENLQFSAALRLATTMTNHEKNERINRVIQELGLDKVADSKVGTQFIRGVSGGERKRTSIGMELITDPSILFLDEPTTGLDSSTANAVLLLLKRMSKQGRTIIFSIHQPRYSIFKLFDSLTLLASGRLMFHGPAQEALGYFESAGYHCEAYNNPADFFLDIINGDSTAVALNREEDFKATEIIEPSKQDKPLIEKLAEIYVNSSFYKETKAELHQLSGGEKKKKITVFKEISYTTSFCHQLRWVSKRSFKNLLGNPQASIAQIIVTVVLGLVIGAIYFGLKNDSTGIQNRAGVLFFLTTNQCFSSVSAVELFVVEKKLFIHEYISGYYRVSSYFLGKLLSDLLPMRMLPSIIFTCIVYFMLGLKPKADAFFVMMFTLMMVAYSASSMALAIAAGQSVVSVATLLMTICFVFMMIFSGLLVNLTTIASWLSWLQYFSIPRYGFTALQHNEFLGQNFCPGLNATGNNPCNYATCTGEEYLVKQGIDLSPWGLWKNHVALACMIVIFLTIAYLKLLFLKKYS
T1 sequence (Q9UNQ0 whole entry): as above
T2 sequence (P08183 whole entry): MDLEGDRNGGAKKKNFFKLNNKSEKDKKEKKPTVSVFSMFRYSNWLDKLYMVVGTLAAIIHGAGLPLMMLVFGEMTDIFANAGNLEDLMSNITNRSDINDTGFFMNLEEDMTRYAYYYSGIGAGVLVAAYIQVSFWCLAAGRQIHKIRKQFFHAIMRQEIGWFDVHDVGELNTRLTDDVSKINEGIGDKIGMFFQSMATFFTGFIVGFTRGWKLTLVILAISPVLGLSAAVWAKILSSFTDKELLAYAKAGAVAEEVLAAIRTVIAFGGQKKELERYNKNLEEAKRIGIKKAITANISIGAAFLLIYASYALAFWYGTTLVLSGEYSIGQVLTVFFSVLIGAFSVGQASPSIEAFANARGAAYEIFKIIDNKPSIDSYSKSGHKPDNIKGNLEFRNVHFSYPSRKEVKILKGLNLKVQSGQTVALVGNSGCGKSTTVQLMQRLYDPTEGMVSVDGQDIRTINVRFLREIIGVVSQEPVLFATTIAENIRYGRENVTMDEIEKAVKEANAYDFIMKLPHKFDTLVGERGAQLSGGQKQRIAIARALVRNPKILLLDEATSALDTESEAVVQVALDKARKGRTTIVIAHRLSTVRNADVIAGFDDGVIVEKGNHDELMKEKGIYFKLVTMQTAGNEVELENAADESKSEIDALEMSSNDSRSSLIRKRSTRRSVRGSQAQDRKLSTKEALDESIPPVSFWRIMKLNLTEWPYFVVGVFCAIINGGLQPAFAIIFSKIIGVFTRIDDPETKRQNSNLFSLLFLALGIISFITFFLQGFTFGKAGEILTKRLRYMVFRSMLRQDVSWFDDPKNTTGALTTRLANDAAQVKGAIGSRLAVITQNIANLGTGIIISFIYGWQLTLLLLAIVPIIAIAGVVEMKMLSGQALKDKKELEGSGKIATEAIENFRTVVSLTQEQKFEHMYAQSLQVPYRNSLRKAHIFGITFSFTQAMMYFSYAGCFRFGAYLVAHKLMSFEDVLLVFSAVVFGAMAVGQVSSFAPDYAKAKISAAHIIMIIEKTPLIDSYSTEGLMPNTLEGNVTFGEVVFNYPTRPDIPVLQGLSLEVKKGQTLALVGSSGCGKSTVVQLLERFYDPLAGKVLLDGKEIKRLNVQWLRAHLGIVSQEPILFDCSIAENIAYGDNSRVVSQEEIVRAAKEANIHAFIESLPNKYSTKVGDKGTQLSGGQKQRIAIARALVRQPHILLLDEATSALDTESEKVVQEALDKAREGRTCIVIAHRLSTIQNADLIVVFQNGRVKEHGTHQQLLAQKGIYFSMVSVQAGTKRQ

| Structure (SMILES) | IC50 (BCRP) [µM] | Hill coefficient BCRP (BCRP) | in vitro classification as BCRP inhibitor (BCRP) | Hill coefficient P-gp (P-gp) | in vitro classification as P-gp inhibitor (P-gp) | IC50 (P-gp) [µM] | fold higher IC50 value for BCRP than for P-gp (P-gp) | inhibition at 20 min, 100 µM (BCRP) [%] | inhibition at 30 min, 100 µM (P-gp) [%] | fold lower IC50 value for BCRP than for P-gp (BCRP) [fold] | selectivity ratio (P-gp / BCRP) | factor more active at P-gp than methoxy analogue 6 b (P-gp; P-gp, compared with 6 b) | fold more active at P-gp than analogue 11 a (P-gp; P-gp, compared with 11 a) |
| --- | --- | --- | --- | --- | --- | --- | --- | --- | --- | --- | --- | --- | --- |
| O=C(CCc1ccccc1)c1ccccc1OCCN1CC(=O)N2CCCC2C1=O (stereo not shown) [Compound 11 a, 2‐(2‐(2‐(3‐Phenylpropanoyl)phenoxy)ethyl)hexahydropyrrolo[1,2‐a]‐pyrazine‐1,4‐dione] | 21.5 ± 2.9 | 1.0±0.0 | weak inhibitor | 1.8±0.4 | borderline inhibitory activity; also recorded: borderline inhibitor | 13.9 ± 1.5 | 1.5 fold | – | – | – | – | – | – |
| COc1ccc(C(=O)CCc2ccccc2)c(OCCNC(=O)C2CCCN2)c1 (stereo not shown) [Compound 10 b] | 2.9 ± 0.5 | 1.0±0.1 | inhibitors | 1.1±0.1 | inhibitors | 1 ± 0.2 | more than 2.6 fold | – | – | – | – | – | – |
| CC(=O)c1ccccc1OCC(O)CN1CC(=O)N2CCCC2C1=O (stereo not shown) [Compound 6 c, 2‐(3‐(2‐Acetylphenoxy)‐2‐hydroxypropyl)hexahydropyrrolo[1,2‐a]‐pyrazine‐1,4‐dione] | – | – | noninhibitors | – | noninhibitors | – | – | 33 | 4 | – | – | – | – |
| CC(C)NCC(O)COc1ccccc1C(=O)CCc1ccccc1 (stereo not shown) [Compound 16 a, 1‐(2‐(2‐Hydroxy‐3‐(isopropylamino)propoxy)phenyl)‐3‐phenyl‐propan‐1‐one] | – | – | – | 0.9±0.1 | inhibitors | 0.3 | more than fivefold | 53 | – | – | – | – | – |
| O=C(CCc1ccccc1)c1ccccc1OCCNC(=O)C1CCCN1 (stereo not shown) [Compound 10 a, N ‐(2‐(2‐(3‐phenylpropanoyl)phenoxy)ethyl)pyrrolidine‐2‐carboxamide] | 3.3 ± 0.6 | 1.3±0.2 | inhibitors | 1.6±0.2 | inhibitors | 1.3 ± 0.1 | more than 2.6 fold | – | – | – | – | – | – |
| CC(=O)c1ccccc1OCCNC(=O)C1CCCN1 (stereo not shown) [Compound 10 c, N ‐(2‐(2‐acetylphenoxy)ethyl)pyrrolidine‐2‐carboxamide] | – | – | noninhibitors | 2.2±0.4 | noninhibitors | 34.8 ± 1.8 | – | 24 | – | – | – | – | – |
| COc1ccc(C(=O)CCc2ccccc2)c(OCC(O)CN2CC(=O)N3CCCC3C2=O)c1 (stereo not shown) [Compound 6 b, 2‐(2‐Hydroxy‐3‐(5‐methoxy‐2‐(3‐phenylpropanoyl)phenoxy)propyl)‐hexahydropyrrolo[1,2‐a]pyrazine‐1,4‐dione] | 3.8 ± 0.6 | 1.1±0.2 | inhibitors | 1.5±0.2 | borderline inhibitory activity | 11 ± 1 | – | – | – | 2.9 | 2.82 | – | – |
| COc1ccc(C(=O)CCc2ccccc2)c(OCCN2CC(=O)N3CCCC3C2=O)c1 (stereo not shown) [Compound 11 b, 2‐(2‐(5‐Methoxy‐2‐(3‐phenylpropanoyl)phenoxy)ethyl)‐hexahydropyrrolo[1,2‐a]pyrazine‐1,4‐dione] | 2.3 | 1.1±0.2 | inhibitors | 1.5±0.1 | inhibitors | 6.2 ± 0.4 | – | – | – | 2.7 | 2.7 | – | – |
| CC(=O)c1ccccc1OCC(O)CNC(=O)C1CCCN1 (stereo not shown) [Compound 5 c, N ‐(3‐(2‐acetylphenoxy)‐2‐hydroxypropyl)pyrrolidine‐2‐carboxamide] | – | – | noninhibitors | 1.9±0.2 | noninhibitors | 58.7 ± 9.2 | – | 20 | – | – | – | – | – |
| COc1ccc(C(=O)CCc2ccccc2)c(OCC(O)CNC(=O)C2CCCN2)c1 (stereo not shown) [Compound 5 b, N‐(2‐hydroxy‐3‐(5‐methoxy‐2‐(3‐phenylpropanoyl)phenoxy)propyl)‐pyrrolidine‐2‐carboxamide] | 3.1 ± 0.5 | 1.4±0.1 | inhibitors | 1.3±0.2 | inhibitors | 2.2 ± 0.6 | 1.4 fold | – | – | – | – | – | – |
| CC(NCC(O)COc1ccccc1C(=O)CCc1ccccc1)C(F)F (stereo not shown) [Compound 16 c, 1‐(2‐(3‐((1,1‐Difluoropropan‐2‐yl)amino)‐2‐hydroxypropoxy)phenyl)‐3‐phenylpropan‐1‐one] | 4.9 ± 1.1 | 1.0±0.2 | inhibitors | 1.5±0.1 | inhibitors | 0.9 ± 0.2 | more than fivefold | – | – | – | – | – | – |
| CC(CF)NCC(O)COc1ccccc1C(=O)CCc1ccccc1 (stereo not shown) [Compound 16 b, 1‐(2‐(3‐((1‐Fluoropropan‐2‐yl)amino)‐2‐hydroxypropoxy)phenyl)‐3‐phenylpropan‐1‐one] | 5.5 ± 0.9 | 1.6±0.2 | inhibitors | 1.3±0.2 | inhibitors | 0.5 ± 0.1 | more than fivefold | – | – | – | – | – | – |
| CC(=O)c1ccccc1OCCN1CC(=O)N2CCCC2C1=O (stereo not shown) [Compound 11 c, 2‐(2‐(2‐Acetylphenoxy)ethyl)hexahydropyrrolo[1,2‐a]pyrazine‐1,4‐dione] | – | – | noninhibitors | – | noninhibitors | – | – | 37 | 8 | – | – | – | – |
| O=C(CCc1ccccc1)c1ccccc1OCC(O)CN1CC(=O)N2CCCC2C1=O (stereo not shown) [Compound 6 a, 2‐(2‐Hydroxy‐3‐(2‐(3‐phenylpropanoyl)phenoxy)propyl)‐hexahydropyrrolo[1,2‐a]pyrazine‐1,4‐dione] | 5.8 ± 1 | 0.9±0.1 | inhibitors | 2.6±0.4 | inhibitors | 1.6 ± 0.6 | more than 2.6 fold | – | – | – | 0.27 | 7 | tenfold |
